Measurements taken from PMC5622171 (Nature Communications, 2017).

Experiments:
LS1034 cells = experiment: CellTiter-Glo cytotoxicity assay; conditions: 10 µM SPA70
Experimental: (§2) For the LS180, SNU-C4 and LS1034 cytotoxicity assays, cells were seeded in a 96-well plate (Corning) at 4000 cells per well. […] Cell viability was assessed using the CellTiter-Glo assay.

[1] = test system: hPXR transcriptional target genes; experiment: DNA microarray analysis in primary human hepatocytes; type: cell-based; conditions: 2.5 μM SPA70, 48 h
From the text: In each case, total RNA was extracted using a Qiagen RNeasy Mini Kit and amplified and labeled by using an One-Color Low Input Quick Amp Labeling Kit (Agilent, Santa Clara, CA, catalog no. 5190-2305), after which it was hybridized to the SurePrint G3 Human GE 8 × 60 K microarray (Agilent-028004), which contains 42,545 unique probes targeting 27,958 Entrez genes. Microarrays were scanned with an Agilent array scanner (G2565CA) at 3-μm resolution. Microarray data were extracted by Agilent Feature Extraction software (v10.5.1.1). Quantile normalization of log-transformed, background-subtracted signal intensity was performed for all samples. This was followed by comparisons between sets of replicates from different experimental groups. Student’s t-test was used to determine the statistical significance of the difference between the paired samples from three replicates of each experiment. […] The data processing and PCA analysis were performed using Partek software (St. Louis, MO)[52]. The GEO accession number for the microarray analysis is GSE90122.

CYP3A4 = experiment: Paclitaxel metabolism in primary human hepatocytes (LC/MS/MS); type: in vitro ADME; conditions: 10 µM SPA70, 1 µM PTX, 24 or 48 h
Experimental: Calibration and quality-control samples were prepared.

PRKCH = target: T1, PRKCH (Homo sapiens, UniProt P24723); experiment: KINOMEscan kinase profiling; type: binding; conditions: read-out: %Inhibition by 10 μM SPA70
T1 construct: purchased DiscoverX (Ambit Biosciences) KINOMEscan
In short: (§1)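 KINOMEscan profiling followed a published protocol. Kinases whose inhibition exceeded a set cut-off were then tested in a dilution series beginning at 30 µM.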

MST3 = target: T2, MST3 (Homo sapiens, UniProt Q9Y6E0); experiment: KINOMEscan kinase profiling; type: binding
T2 construct: purchased DiscoverX (Ambit Biosciences) KINOMEscan
In short: as §1

PIK3C2G = target: T3, PIK3C2G (Homo sapiens, UniProt O75747); experiment: KINOMEscan kinase profiling; type: binding; conditions: read-out: %Inhibition by 10 μM SPA70
T3 construct: purchased DiscoverX (Ambit Biosciences) KINOMEscan
In short: as §1

LATS2 = target: T4, LATS2 (Homo sapiens, UniProt Q9NRM7); experiment: KINOMEscan kinase profiling; type: binding
T4 construct: purchased DiscoverX (Ambit Biosciences) KINOMEscan
In short: as §1

[2] = target: T5, JAK1(JH1domain-catalytic) (Homo sapiens, UniProt P23458); experiment: KINOMEscan kinase profiling; type: binding
T5 construct: JAK1(JH1domain-catalytic); purchased DiscoverX (Ambit Biosciences) KINOMEscan
In short: as §1

ERBB4 = target: T6, ERBB4 (Homo sapiens, UniProt Q15303); experiment: KINOMEscan kinase profiling; type: binding; conditions: read-out: %Inhibition by 10 μM SPA70
T6 construct: purchased DiscoverX (Ambit Biosciences) KINOMEscan
In short: as §1

TSSK1B = target: T7, TSSK1B (Homo sapiens, UniProt Q9BXA7); experiment: KINOMEscan kinase profiling; type: binding; conditions: read-out: %Inhibition by 10 μM SPA70
T7 construct: purchased DiscoverX (Ambit Biosciences) KINOMEscan
In short: as §1

ACVR2A = target: T8, ACVR2A (Homo sapiens, UniProt P27037); experiment: KINOMEscan kinase profiling; type: binding; conditions: read-out: %Inhibition by 10 μM SPA70
T8 construct: purchased DiscoverX (Ambit Biosciences) KINOMEscan
In short: as §1

ERK2 = target: T9, ERK2 (Homo sapiens, UniProt P28482); experiment: KINOMEscan kinase profiling; type: binding; conditions: read-out: %Inhibition by 10 μM SPA70
T9 construct: purchased DiscoverX (Ambit Biosciences) KINOMEscan
In short: as §1

BMPR1B = target: T10, BMPR1B (Homo sapiens, UniProt O00238); experiment: KINOMEscan kinase profiling; type: binding; conditions: read-out: %Inhibition by 10 μM SPA70
T10 construct: purchased DiscoverX (Ambit Biosciences) KINOMEscan
In short: as §1

IKK-epsilon = target: T11, IKK-epsilon (Homo sapiens, UniProt Q14164); experiment: KINOMEscan kinase profiling; type: binding; conditions: read-out: %Inhibition by 10 μM SPA70
T11 construct: purchased DiscoverX (Ambit Biosciences) KINOMEscan
In short: as §1

ERBB3 = target: T12, ERBB3 (Homo sapiens, UniProt P21860); experiment: KINOMEscan kinase profiling; type: binding; conditions: read-out: %Inhibition by 10 μM SPA70
T12 construct: purchased DiscoverX (Ambit Biosciences) KINOMEscan
In short: as §1

ERK5 = target: T13, ERK5 (Homo sapiens, UniProt Q13164); experiment: KINOMEscan kinase profiling; type: binding; conditions: read-out: %Inhibition by 10 μM SPA70
T13 construct: purchased DiscoverX (Ambit Biosciences) KINOMEscan
In short: as §1

WEE1 = target: T14, WEE1 (Homo sapiens, UniProt P30291); experiment: KINOMEscan kinase profiling; type: binding; conditions: read-out: %Inhibition by 10 μM SPA70
T14 construct: purchased DiscoverX (Ambit Biosciences) KINOMEscan
In short: as §1

PRKX = target: T15, PRKX (Homo sapiens, UniProt P51817); experiment: KINOMEscan kinase profiling; type: binding; conditions: read-out: %Inhibition by 10 μM SPA70
T15 construct: purchased DiscoverX (Ambit Biosciences) KINOMEscan
In short: as §1

PDGFRB = target: T16, PDGFRB (Homo sapiens, UniProt P09619); experiment: KINOMEscan kinase profiling; type: binding; conditions: read-out: %Inhibition by 10 μM SPA70
T16 construct: purchased DiscoverX (Ambit Biosciences) KINOMEscan
In short: as §1

HCK = target: T17, HCK (Homo sapiens, UniProt P08631); experiment: KINOMEscan kinase profiling; type: binding; conditions: read-out: %Inhibition by 10 μM SPA70
T17 construct: purchased DiscoverX (Ambit Biosciences) KINOMEscan
In short: as §1

CAMK1G = target: T18, CAMK1G (Homo sapiens, UniProt Q96NX5); experiment: KINOMEscan kinase profiling; type: binding; conditions: read-out: %Inhibition by 10 μM SPA70
T18 construct: purchased DiscoverX (Ambit Biosciences) KINOMEscan
In short: as §1

PKN1 = target: T19, PKN1 (Homo sapiens, UniProt Q16512); experiment: KINOMEscan kinase profiling; type: binding; conditions: read-out: %Inhibition by 10 μM SPA70
T19 construct: purchased DiscoverX (Ambit Biosciences) KINOMEscan
In short: as §1

DYRK1A = target: T20, DYRK1A (Homo sapiens, UniProt Q13627); experiment: KINOMEscan kinase profiling; type: binding; conditions: read-out: %Inhibition by 10 μM SPA70
T20 construct: purchased DiscoverX (Ambit Biosciences) KINOMEscan
In short: as §1

SNU-C4 cells = experiment: CellTiter-Glo cytotoxicity assay; conditions: 10 µM SPA70
Experimental: as §2

T19 sequence (Q16512 whole entry): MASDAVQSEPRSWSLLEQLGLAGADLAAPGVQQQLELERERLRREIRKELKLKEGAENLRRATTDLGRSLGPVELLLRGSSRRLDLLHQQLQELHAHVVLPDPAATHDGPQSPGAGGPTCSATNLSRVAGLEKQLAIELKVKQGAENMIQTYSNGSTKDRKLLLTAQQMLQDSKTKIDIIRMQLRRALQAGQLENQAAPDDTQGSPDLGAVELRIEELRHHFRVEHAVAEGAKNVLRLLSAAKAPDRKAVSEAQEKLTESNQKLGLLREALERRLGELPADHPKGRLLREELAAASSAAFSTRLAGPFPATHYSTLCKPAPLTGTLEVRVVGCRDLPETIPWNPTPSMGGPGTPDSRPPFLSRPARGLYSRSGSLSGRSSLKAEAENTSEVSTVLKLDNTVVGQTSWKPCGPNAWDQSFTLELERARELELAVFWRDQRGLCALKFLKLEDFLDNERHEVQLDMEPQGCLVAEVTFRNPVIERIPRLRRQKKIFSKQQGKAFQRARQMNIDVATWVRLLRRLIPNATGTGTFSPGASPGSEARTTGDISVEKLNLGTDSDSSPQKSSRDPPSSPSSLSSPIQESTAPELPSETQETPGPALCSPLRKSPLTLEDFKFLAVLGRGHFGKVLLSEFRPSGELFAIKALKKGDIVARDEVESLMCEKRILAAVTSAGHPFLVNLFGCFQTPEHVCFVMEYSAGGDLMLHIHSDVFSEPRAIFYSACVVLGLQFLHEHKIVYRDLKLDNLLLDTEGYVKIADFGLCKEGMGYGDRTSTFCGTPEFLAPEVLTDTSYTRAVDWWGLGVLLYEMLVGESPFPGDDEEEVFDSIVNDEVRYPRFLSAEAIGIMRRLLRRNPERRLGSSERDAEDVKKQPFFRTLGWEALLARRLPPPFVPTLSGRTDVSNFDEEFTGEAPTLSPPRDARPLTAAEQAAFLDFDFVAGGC
T5 sequence (P23458 875-1154 limits assumed): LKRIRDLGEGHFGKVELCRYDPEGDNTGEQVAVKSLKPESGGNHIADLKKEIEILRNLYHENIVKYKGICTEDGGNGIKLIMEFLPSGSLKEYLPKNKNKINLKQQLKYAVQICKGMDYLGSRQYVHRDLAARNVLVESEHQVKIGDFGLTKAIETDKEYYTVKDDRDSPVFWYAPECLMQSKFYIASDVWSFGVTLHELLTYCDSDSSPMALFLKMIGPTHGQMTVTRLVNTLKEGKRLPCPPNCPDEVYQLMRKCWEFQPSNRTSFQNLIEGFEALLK
T18 sequence (Q96NX5 whole entry): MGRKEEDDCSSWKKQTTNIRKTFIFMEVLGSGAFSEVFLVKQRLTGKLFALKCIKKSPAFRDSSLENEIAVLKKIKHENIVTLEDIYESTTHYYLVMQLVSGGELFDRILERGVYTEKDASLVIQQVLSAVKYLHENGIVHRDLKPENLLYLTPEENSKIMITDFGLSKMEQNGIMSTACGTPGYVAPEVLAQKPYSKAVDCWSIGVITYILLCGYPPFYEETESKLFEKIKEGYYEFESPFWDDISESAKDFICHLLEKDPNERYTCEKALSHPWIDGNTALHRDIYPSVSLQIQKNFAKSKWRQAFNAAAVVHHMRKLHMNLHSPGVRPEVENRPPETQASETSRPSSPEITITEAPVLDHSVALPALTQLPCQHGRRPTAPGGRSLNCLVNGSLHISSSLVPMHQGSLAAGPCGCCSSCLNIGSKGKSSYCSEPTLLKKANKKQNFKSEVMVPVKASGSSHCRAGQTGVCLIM
T10 sequence (O00238 14-502): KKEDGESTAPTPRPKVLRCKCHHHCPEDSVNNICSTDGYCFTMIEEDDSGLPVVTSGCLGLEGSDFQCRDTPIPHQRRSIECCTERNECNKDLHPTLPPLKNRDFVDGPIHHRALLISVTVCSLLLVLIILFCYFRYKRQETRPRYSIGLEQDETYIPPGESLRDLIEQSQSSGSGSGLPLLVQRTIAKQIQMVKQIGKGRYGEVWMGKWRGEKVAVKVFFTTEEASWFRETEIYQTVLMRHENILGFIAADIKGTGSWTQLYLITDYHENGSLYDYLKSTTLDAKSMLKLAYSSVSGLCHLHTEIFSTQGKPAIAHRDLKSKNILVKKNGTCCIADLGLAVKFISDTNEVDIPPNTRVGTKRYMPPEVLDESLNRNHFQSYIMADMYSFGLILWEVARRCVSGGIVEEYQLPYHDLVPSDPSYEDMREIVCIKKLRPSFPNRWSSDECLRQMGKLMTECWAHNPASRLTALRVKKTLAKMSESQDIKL
T12 sequence (P21860 20-1342): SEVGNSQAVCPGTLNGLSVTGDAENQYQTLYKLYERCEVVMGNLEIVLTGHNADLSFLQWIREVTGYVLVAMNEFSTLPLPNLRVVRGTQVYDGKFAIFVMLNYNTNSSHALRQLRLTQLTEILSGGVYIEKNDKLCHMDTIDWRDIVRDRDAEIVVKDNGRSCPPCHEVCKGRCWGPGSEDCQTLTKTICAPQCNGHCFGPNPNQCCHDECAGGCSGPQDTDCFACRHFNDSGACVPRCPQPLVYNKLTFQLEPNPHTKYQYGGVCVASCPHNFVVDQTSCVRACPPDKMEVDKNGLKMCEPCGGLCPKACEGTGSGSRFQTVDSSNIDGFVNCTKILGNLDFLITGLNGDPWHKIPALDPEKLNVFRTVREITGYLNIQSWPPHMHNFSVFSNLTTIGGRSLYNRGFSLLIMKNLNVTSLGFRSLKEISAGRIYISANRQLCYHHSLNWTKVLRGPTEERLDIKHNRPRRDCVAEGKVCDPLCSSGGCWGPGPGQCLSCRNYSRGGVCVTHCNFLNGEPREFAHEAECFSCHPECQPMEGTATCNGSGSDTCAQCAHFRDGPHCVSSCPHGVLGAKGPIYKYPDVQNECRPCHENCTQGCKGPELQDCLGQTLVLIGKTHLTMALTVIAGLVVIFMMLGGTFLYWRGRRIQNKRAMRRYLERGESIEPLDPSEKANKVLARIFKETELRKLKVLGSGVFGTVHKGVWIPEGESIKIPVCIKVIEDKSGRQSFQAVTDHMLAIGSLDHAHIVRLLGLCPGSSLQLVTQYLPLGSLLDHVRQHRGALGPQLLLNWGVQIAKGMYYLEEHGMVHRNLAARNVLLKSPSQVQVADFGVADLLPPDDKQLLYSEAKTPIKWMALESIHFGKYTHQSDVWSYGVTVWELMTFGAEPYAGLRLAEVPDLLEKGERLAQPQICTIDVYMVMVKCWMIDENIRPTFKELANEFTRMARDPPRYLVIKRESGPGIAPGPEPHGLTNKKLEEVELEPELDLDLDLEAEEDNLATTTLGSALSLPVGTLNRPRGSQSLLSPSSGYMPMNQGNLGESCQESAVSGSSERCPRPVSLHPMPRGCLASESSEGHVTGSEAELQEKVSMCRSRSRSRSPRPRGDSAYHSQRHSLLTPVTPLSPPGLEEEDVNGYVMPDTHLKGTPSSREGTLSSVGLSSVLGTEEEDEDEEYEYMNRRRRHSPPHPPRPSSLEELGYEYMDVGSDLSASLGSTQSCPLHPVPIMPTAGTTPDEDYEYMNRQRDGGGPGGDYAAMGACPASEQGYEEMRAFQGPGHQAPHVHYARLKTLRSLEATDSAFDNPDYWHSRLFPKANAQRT
T6 sequence (Q15303 26-1308): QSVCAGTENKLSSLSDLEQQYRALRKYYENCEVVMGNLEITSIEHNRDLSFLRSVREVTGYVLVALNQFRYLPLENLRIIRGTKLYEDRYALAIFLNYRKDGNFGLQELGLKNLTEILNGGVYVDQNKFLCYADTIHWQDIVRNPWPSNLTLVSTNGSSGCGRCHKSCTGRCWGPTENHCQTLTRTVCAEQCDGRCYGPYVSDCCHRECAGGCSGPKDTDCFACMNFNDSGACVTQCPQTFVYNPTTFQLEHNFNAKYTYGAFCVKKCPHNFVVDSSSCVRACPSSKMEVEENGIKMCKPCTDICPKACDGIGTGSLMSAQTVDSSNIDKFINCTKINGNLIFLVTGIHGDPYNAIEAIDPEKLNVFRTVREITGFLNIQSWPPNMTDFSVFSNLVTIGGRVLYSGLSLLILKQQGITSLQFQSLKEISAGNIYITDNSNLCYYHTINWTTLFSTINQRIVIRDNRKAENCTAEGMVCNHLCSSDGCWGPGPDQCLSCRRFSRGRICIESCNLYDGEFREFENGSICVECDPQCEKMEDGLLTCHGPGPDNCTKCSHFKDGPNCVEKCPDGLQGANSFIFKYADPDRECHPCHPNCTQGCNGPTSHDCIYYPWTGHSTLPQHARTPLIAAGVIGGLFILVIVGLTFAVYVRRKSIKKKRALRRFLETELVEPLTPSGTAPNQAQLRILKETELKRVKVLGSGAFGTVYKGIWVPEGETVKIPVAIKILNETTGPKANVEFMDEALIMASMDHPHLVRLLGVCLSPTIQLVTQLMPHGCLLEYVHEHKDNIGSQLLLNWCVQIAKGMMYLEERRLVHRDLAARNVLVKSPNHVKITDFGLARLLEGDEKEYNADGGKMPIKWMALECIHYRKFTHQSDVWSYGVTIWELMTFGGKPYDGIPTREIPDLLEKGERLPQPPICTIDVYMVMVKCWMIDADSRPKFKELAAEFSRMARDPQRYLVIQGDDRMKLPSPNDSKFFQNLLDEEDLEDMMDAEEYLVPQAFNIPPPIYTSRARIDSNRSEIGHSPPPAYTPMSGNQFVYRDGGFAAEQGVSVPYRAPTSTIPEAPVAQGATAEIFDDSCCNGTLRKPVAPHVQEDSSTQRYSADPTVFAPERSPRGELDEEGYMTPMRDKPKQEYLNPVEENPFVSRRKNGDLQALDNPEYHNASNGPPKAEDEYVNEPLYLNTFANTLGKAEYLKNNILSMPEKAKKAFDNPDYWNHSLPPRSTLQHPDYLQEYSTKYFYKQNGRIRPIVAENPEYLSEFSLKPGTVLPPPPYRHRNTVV

COc1ccc(OC)c(-n2nnc(S(=O)(=O)c3ccc(C(C)(C)C)cc3)c2C)c1 [SPA70]
Sensitization of LS1034 cells to paclitaxel and vincristine (LS1034 cells): sensitized LS1034 cells to both paclitaxel and vincristine
Effect on induction of hPXR transcriptional target genes by rifampicin, SR12813 and T090137 [1]: blocked their induction
Effect on metabolism of paclitaxel to 3′-p-hydroxypaclitaxel or 6α-hydroxypaclitaxel (CYP3A4): substantially blocked
inhibition at 10 µM (PRKCH): 13%
%Inhibition by 10 μM SPA70 (MST3): 0%
inhibition at 10 µM (PIK3C2G): 0%
%Inhibition by 10 μM SPA70 (LATS2): 0%
%Inhibition by 10 μM SPA70 [2]: 19%
inhibition at 10 µM (ERBB4): 2%
inhibition at 10 µM (TSSK1B): 0%
inhibition at 10 µM (ACVR2A): 0%
inhibition at 10 µM (ERK2): 0%
inhibition at 10 µM (BMPR1B): 0%
inhibition at 10 µM (IKK-epsilon): 0%
inhibition at 10 µM (ERBB3): 42%
inhibition at 10 µM (ERK5): 0%
inhibition at 10 µM (WEE1): 0%
inhibition at 10 µM (PRKX): 8%
inhibition at 10 µM (PDGFRB): 46%
inhibition at 10 µM (HCK): 9%
inhibition at 10 µM (CAMK1G): 25%
inhibition at 10 µM (PKN1): 0%
inhibition at 10 µM (DYRK1A): 0%
Sensitization of SNU-C4 cells to paclitaxel and vincristine (SNU-C4 cells): sensitizing the cells to paclitaxel and vincristine
